# Active and inactive are the calls of the source.
# Assays:
# HEK293 [1] = assay: cells; type: functional, cell-based; conditions: Homo sapiens
# [2] = target: T1, Nuclear receptor subfamily 0 group B member 1 (Homo sapiens, UniProt P51843); assay: Luminescence-based cell-based high throughput dose response assay for inhibitors of the orphan nuclear receptor subfamily 0, group B, member 1 (DAX1; NR0B1). [Related pubchem assays (depositor defined):AID504766, AID504790]; type: functional
# T1 sequence (P51843 whole entry): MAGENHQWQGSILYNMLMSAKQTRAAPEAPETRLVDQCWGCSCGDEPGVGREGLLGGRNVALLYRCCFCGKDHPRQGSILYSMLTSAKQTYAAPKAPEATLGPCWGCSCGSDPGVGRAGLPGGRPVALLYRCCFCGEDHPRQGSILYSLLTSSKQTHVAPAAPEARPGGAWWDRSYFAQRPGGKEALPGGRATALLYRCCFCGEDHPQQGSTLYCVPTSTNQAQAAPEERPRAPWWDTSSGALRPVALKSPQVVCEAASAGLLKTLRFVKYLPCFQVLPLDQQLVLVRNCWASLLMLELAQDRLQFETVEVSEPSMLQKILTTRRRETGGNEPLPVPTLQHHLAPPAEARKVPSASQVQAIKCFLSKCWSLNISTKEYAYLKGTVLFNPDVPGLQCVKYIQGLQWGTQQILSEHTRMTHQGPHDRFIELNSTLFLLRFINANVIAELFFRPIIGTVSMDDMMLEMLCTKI
# [3] = target: Heat shock protein HSP 90-alpha (Homo sapiens, UniProt P07900); type: functional, organism-based
# [4] = target: NAD-dependent protein deacylase sirtuin-5, mitochondrial (Homo sapiens, UniProt Q9NXA8); assay: SIRT5 desuccinylase inhibitors, dose response, biochemical, fluorescence imaging, cherry-pick, set 5 (AID 720591);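 also: desuccinylation of succinyl peptide AMC substrate read as fluorescence after trypsin release; potency of inhibitors that lower fluorescence and may act on trypsin instead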
# [5] = P. falciparum late gametocyte killing, dose response, luminescence (AID 1117278); type: functional, cell-based;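 also: gametocytes exposed to compound for 24 hours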
# [6] = Jurkat T cell cytotoxicity, dose response, cytotoxicity control for P. falciparum gametocyte viability project, luminescence (AID 1117277); type: functional, cell-based;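 also: potency reflects loss of cellular ATP meaning fewer viable cells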
# Vero = assay: Vero cell toxicity, dose response, cytotoxicity control, plate reader, cherry-pick samples (AID 687020); type: functional, cell-based; conditions: Chlorocebus sabaeus
# [7] = target: T2, Sentrin-specific protease 8 (Homo sapiens, UniProt Q96LD8); type: functional
# T2 sequence (Q96LD8 whole entry): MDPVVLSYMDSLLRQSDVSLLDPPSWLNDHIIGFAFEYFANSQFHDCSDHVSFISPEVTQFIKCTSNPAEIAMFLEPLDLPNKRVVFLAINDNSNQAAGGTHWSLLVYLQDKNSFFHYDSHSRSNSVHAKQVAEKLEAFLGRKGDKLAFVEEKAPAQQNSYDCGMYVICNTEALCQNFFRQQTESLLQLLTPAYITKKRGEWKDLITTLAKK
# [8] = target: T2, Sentrin-specific protease 8; type: functional; remark: listed apart in the source
# [9] = HeLa 2N DNA content increase, dose response, cell-based, IC50 (AID 1117349); type: functional
# [10] = HeLa 4N DNA content increase, dose response, cell-based, IC50 (AID 1117351); type: functional
# [11] = Luminescence Cell-Based Dose Retest to Confirm Inhibitors of Cancer Stem Cells. [Related pubchem assays (depositor defined):AID2717, AID2721]; type: functional; conditions: Homo sapiens
# Cysteine protease ATG4B = target: T3, Cysteine protease ATG4B (Homo sapiens, UniProt Q9Y4P1); type: functional;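 also: Fluorescence-based dose-response confirmation assay measuring inhibition of ATG4B activity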
# T3 sequence (Q9Y4P1 whole entry): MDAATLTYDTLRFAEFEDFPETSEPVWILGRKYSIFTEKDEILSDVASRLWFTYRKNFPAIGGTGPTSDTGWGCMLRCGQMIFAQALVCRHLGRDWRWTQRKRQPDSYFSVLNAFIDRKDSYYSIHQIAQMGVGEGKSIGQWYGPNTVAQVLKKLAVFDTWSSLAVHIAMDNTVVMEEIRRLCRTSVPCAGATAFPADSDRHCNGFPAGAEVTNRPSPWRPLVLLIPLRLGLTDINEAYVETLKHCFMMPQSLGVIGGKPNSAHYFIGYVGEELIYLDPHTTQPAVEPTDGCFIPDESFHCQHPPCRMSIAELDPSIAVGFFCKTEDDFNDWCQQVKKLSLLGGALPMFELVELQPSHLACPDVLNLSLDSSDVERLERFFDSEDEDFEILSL
# Phospholipase A2 = Phospholipase A2 (Homo sapiens, UniProt P04054); type: functional;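 also: confirmatory dose-response counterscreen on phospholipase A2, testing hits that came from an ultra-high-throughput screen for ATG4B inhibitors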
# [12] = A549 cell cytotoxicity, dose response, cytotoxicity control, plate reader, cherry-pick, antagonist series (AID 743412); type: functional, cell-based
# [13] = HepG2 cell cytotoxicity, dose response, cytotoxicity control, plate reader, cherry-pick, antagonist series (AID 743416); type: functional, cell-based
# [14] = LGR2 antagonists, dose response, cell-based, HEK293, CRE-luciferase reporter, cherry pick, set 2 (AID 743343); type: functional;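 also: transfected cells were stimulated with diluted bursicon conditioned medium after compound addition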
# [15] = MC4R antagonists, dose response, counter-screen for LGR2 antagonist project, cell-based, plate reader, cherry pick (AID 743444); type: functional;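 also: transfected HEK 293 cells stimulated with alpha-MSH peptide; potency of inhibitors of the alpha-MSH evoked signal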
# HEK293 [16] = assay: inhibitors of LMP1-driven NF-kB reporter, dose response, cell-based, HEK293, luciferase, cherry-pick (AID 588343); type: functional; conditions: Homo sapiens
# [17] = Fluorescence-based cell-based high throughput dose response assay for inhibitors of the interaction of nucleotide-binding oligomerization domain containing 2 (NOD2) and the receptor-interacting serine-threonine kinase 2 (RIPK2).; type: functional; conditions: Homo sapiens
# [18] = target: T4, Mannose-6-phosphate isomerase (Homo sapiens, UniProt P34949); assay: human PMI inhibitors, high substrate, primary screen, biochemical, fluorescence intensity, high mannose 6-phosphate (AID 1220)
# T4 sequence (P34949 whole entry): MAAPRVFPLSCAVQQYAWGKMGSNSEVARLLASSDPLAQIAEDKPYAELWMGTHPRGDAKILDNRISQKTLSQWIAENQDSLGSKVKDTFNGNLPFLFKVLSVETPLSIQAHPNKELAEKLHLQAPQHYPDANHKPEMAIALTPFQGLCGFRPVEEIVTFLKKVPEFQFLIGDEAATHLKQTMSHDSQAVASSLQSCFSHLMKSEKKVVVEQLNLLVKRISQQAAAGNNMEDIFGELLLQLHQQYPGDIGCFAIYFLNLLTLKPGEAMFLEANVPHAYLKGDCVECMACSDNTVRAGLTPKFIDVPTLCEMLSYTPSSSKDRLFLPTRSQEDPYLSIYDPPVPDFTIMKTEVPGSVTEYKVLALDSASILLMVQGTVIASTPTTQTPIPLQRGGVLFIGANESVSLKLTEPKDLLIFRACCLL
# [19] = target: T5, Rac GTPase-activating protein 1 (Homo sapiens, UniProt Q9H0H5); assay: MgcRacGAP GTPase-activating activity inhibitors, confirmation, biochemical, ADP Hunter fluorescence, primary and confirmatory (AID 624330); type: functional
# T5 sequence (Q9H0H5 whole entry): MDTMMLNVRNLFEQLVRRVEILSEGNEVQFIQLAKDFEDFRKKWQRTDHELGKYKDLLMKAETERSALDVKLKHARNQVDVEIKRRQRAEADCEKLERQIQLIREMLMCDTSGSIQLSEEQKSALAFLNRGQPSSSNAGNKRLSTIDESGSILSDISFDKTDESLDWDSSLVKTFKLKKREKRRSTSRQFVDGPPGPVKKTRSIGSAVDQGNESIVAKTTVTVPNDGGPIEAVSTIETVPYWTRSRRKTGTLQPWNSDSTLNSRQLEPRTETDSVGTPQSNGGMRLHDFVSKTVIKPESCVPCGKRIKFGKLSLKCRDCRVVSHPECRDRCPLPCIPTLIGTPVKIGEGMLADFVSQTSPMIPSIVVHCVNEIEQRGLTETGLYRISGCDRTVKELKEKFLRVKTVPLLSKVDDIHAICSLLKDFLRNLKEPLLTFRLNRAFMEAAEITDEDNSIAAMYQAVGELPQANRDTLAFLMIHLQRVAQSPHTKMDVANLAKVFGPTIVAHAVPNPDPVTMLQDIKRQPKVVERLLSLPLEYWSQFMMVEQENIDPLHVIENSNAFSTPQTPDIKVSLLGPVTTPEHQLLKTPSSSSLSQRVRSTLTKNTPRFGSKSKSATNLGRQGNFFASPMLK
# [20] = Shn3 3'UTR reporter inhibitors, dose response, cell-based, Clone20 osteoblasts, firefly luciferase, cherry-picked (AID 624132); type: functional;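 also: firefly luciferase luminescence from reporter carrying the Shn3 3'UTR in osteoblasts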
# [21] = HepG2 cell cytotoxicity, dose response, cytotoxicity control for Shn3 inhibitor project, CellTiter-Glo, cherry-picked (AID 624134); type: functional, cell-based
# [22] = control 3'UTR Renilla luciferase suppression, dose response, counter-screen for Shn3 inhibitor project, cell-based, Clone20-Shn3RL, cherry-picked (AID 624133); type: functional
# Paired box protein Pax-8 = Paired box protein Pax-8 (Homo sapiens, UniProt Q06710); assay: inhibitors of PAX8-driven TPO luciferase reporter, dose response, RMG-I cells, cherry-pick (AID 687027); type: functional, cell-based;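 also: luciferase reporter driven by Pax8 target thyroperoxidase promoter measured by SteadyGlo luminescence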
# [23] = HeLa cell cytotoxicity, dose response, cytotoxicity control for MgcRacGAP inhibitor project (AID 624300); type: functional
# Chain of NAD-dependent protein deacylase sirtuin-5, mitochondrial (Q9NXA8 whole entry): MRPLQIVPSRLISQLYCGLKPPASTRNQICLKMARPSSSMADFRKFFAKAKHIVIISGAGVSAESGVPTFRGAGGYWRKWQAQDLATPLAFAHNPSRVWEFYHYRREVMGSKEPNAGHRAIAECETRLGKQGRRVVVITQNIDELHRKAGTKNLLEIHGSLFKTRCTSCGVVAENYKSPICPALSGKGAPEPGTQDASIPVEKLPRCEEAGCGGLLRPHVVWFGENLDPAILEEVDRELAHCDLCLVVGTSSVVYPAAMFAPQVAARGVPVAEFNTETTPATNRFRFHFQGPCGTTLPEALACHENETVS
# Chain of Phospholipase A2 (P04054 whole entry): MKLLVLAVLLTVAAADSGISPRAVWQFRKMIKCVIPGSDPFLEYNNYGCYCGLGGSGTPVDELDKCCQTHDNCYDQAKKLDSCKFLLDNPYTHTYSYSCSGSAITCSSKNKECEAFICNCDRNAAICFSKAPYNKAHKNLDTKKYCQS
# Chain of Paired box protein Pax-8 (Q06710 whole entry): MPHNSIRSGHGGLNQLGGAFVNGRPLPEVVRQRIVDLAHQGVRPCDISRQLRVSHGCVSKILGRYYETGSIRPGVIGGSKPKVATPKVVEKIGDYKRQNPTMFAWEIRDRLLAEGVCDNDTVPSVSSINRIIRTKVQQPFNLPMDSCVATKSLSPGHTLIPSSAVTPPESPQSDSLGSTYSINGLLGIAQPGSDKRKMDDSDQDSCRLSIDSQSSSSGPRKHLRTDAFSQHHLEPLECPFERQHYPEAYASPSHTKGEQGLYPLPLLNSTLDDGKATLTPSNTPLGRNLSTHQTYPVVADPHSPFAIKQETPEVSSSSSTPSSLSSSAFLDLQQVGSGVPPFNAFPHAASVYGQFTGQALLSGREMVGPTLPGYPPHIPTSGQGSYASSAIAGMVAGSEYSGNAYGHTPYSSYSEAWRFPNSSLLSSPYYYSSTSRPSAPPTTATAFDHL
compound,measurement,setting,value
O=C(NNC(=O)c1ccccc1O)c1ccc(Br)cc1,IC50,HEK293 [1],> 67.5 µM (inactive)
same,IC50,[2],> 67.5 µM (inactive)
O=C(Nc1ccccc1)C(Cl)C(=O)c1ccccc1 (configuration not stated),AC50,[3],0.786 µM (active)
CCOc1ccc(NC(=O)COC(=O)Cc2ccsc2)cc1,AC50,[4],22.3 µM (active)
CC(NC(=O)CCc1nnc(CCCc2ccccc2)o1)c1ccccc1 (configuration not stated),IC50,[5],> 109 µM (inactive)
same,IC50,[6],> 83.3 µM (inactive)
O=C1c2ccccc2[C@@H]2C[C@@H](O)[C@H](Nc3cccc4ccccc34)CCN12,AC50,Vero,29.8 µM (active)
O=C(CCc1nc2ccccc2[nH]1)N1CCc2ccccc2C1,IC50,[7],> 100 µM (inactive)
same,IC50,[8],17.6 µM (active)
Cc1cccc(COC(=O)CCCNC(=O)c2ccc(Cl)cc2)c1,AC50,[3],8.04 µM (active)
CC(C)=CCC/C(C)=C/CC/C(C)=C/C(=O)OCC(=O)[C@@]1(O)CC[C@H]2[C@@H]3CCC4=CC(=O)C=C[C@]4(C)[C@H]3[C@@H](O)C[C@@]21C,IC50,[9],> 10 µM (inactive)
same,IC50,[10],> 10 µM (inactive)
Oc1ccc(N=Nc2nc(-c3ccccc3)c(-c3ccccc3)[nH]2)cc1,AC50,[11],3.9 µM (active)
same,IC50,Cysteine protease ATG4B,9.13 µM (active)
same,AC50,[3],4.75 µM (active)
same,IC50,Phospholipase A2,6.36 µM (active)
CC(C)(C)OC(=O)NCCCCCNC(=O)c1[nH]cnc1C(=O)N1CCc2ccccc2C1,IC50,[7],> 100 µM (inactive)
same,IC50,[8],14.9 µM (active)
C[C@H]1CN([C@@H](C)CO)C(=O)c2cccc(NC(=O)NC3CCCCC3)c2O[C@@H]1CN(C)Cc1ccc(C(F)(F)F)cc1,AC50,[12],19.2 µM (active)
same,AC50,[13],26.4 µM (active)
same,AC50,[14],46.4 µM (active)
same,AC50,[15],17.1 µM (active)
O=C(NN=Cc1ccc(N(CCCl)CCCl)cc1Cl)c1cccnc1,AC50,HEK293 [16],1.26 µM (active)
O=C(CN(c1cccc(C(F)(F)F)c1)S(=O)(=O)c1ccc(Cl)c([N+](=O)[O-])c1)NCc1ccc(F)cc1,AC50,[11],1.81 µM (active)
same,IC50,[17],5.86 µM (active)
O=C(O)c1ccc(CNCc2cccc(Cl)c2)cc1,AC50,[4],> 30 µM (inactive)
COc1ccc(NC(=O)NNC(=O)CCC(=O)Nc2ccccc2Cl)cc1,IC50,HEK293 [1],> 67.5 µM (inactive)
same,IC50,[2],> 67.5 µM (inactive)
SC1=NC[C@H](c2ccccc2)N1CCCCC1CCCCC1,IC50,[5],> 109 µM (inactive)
same,IC50,[6],79.3 µM (inactive)
COc1ccc2c(c1)-c1nc(N)sc1CC2,IC50,[18],23.8 µM (active)
same,IC50,[19],29.5 µM (active)
CCCCC(=O)/N=C(\N)Nc1nc2ccccc2o1,IC50,HEK293 [1],> 67.6 µM (inactive)
same,IC50,[2],> 67.6 µM (inactive)
CCN(CC)CC(=O)Nc1ccc2c(c1)N(C(=O)CN(CC)CC)c1ccccc1CC2,IC50,[7],19.1 µM (active)
same,IC50,[8],15.4 µM (active)
Cc1cc(C)nc(N=C(Nc2ccccc2Br)NS(=O)(=O)Cc2ccccc2)n1,AC50,HEK293 [16],33.5 µM (active)
C=C1C(=O)[C@]23C[C@H]1CCC2[C@]1(C)CCC[C@@](C)(C(=O)O)C1C[C@@H]3O (some centres not stated),AC50,[20],1.2 µM (active)
same,AC50,[21],> 70 µM (inactive)
same,AC50,[22],8.47 µM (active)
same,IC50,[17],7.03 µM (active)
same,AC50,Paired box protein Pax-8,1.77 µM (active)
COc1ccc(S(=O)(=O)NCc2ccc(C(=O)NCc3cccnc3)cc2)cc1,IC50,[5],> 109 µM (inactive)
same,IC50,[6],> 83.3 µM (inactive)
O=C(CNc1cccc2ccccc12)N/N=C/c1ccc(OC(=O)/C=C/c2ccco2)cc1,IC50,[18],> 50 µM (not active)
COc1cccc(-n2c(SCC(N)=O)nnc2-c2ccco2)c1,AC50,[4],22.1 µM (active)
CC(OC(=O)c1ccc2c(=O)n3c(nc2c1)CCC3)C(=O)NC1CCCCC1C (configuration not stated),AC50,Vero,31.1 µM (active)
O=c1c(-c2ccccc2)c[nH]n1-c1cccc([N+](=O)[O-])c1,IC50,HEK293 [1],> 67.5 µM (inactive)
same,IC50,[2],> 67.5 µM (inactive)
same,CC50,[23],100 µM (active)
same,IC50,[19],48.4 µM (active)
CC(CNC(=O)Cn1ccc(NC(=O)OCc2ccccc2)nc1=O)c1ccccc1 (configuration not stated),AC50,Vero,24.6 µM (active)
